Results published in US20240075140A1, “ENGINEERED NK CELLS AND METHODS OF TREATING CANCER” (American Gene Technologies Intemational Inc, priority 2021, published 2024).

Test system: Daudi cells
Test: CD107a response of Mitomycin C treated S76 to Daudi cells
Assay type: cell-based
Details: various concentrations, 1 or 2 hours; Daudi 2:1, 4 hours
Method: Cloned S76 cells were treated with MMC at various concentration for 1 or 2 hours. After MMC treatment, S76 was mixed with Daudi cells at a 2:1 ratio for 4 hours. CD107a was measured by flow cytometry. For detecting CD107a, cells were washed, resuspended in 50-100 μl of staining buffer, and stained with mouse anti-human Vδ2-PE clone B6 and mouse anti-human CD107a-APC clone H4A3. Cells were washed with staining buffer and resuspended. Data for at least 1×10^4 lymphocytes (gated on the basis of forward- and side-scatter profiles) were acquired from each sample on a FACSCalibur flow cytometer (BD Biosciences). All samples were analyzed using FlowJo software.

CO[C@@]12[C@H](COC(N)=O)C3=C(C(=O)C(C)=C(N)C3=O)N1C[C@@H]1N[C@@H]12 [MMC, Mitomycin C]
effect of Mitomycin C treatment on function of clone S76 (CD107a response to Daudi): did not significantly impair the function
